Measured values: patent US8716012B2, “Alpha thymosin peptides as vaccine enhancers” (priority 2009, dated 2014)

Tests used:
[1] = Safety and tolerability observations in ferrets; format: in vivo; details: TA1 0.285 or 0.570 mg/kg/dose s.c.
Procedure: The vaccine (either Agrippal influPozzi seasonal vaccine, non-adjuvanted, or Fluad, MF-59 adjuvanted) was administered via intramuscular injection to the right leg at a full human dose of 0.5 mL. TA1 (0.285 or 0.570 mg/kg/dose) was administered by the subcutaneous route at a dose volume that, using a scaling factor for ferret/human dosing, corresponding to approximate human doses of […]. Animals were observed twice daily for mortality, general health, and both local and systemic signs of toxicity and illness as well as behavior under the responsibility of a professional veterinarian. Body weights were recorded prior to dosing only.

[2] = CD-1 mice; TA1 0.3, 0.6 or 1.2 mg/kg/dose i.p. with Fluvirin
[3] = cited from earlier work
[4] = more than 3,000 patients (adults, elderly, children); cited from earlier work
[5] = doses as high as 800 times the recommended human dose; cited from earlier work

In the case of “Ac-SDAAVDTSSEITTKDLKEKKEVVEEAEN-OH [TA1]”, the cage-side observations [1] is reported as “no cage-side observations were noted”, the safety and tolerability [1] is reported as “safe and well-tolerated” and the “clinical/cageside observations or body weight effects” value [2] is reported as “no test article-related clinical/cageside observations or body weight effects”. The survival [2] was “All animals survived until scheduled termination”, the Peak plasma levels ([3]; after injection of 3.2 mg of TA1 (about 40 μg/kg)) was “approximately 100 ng/ml” and the “half-life of TA1 in the circulation” value ([3]; in vivo) was “about 2 hours”. The plasma half-life ([3]; subcutaneously injected TA1) was “about two”, the “drug-related side effects in clinical studies” value [4] was “virtually no drug-related side effects” and the “adverse clinical signs in animal studies” value [5] was “no evidence of adverse clinical signs”.
